Source: patent US4277474A, “Treatment of allergic symptoms with propanone derivatives” (Nippon Zoki Pharmaceutical Co., Ltd., priority 1978, dated 1981)
Counter-ions that a name gives are not always drawn.

Legend:
[1] = system: Hartley-strain male guinea pig; test: Experimental atopic asthma in passively sensitized guinea pigs; format: in vivo; details: 50 mg/kg peroral
Protocol: [Levine, B. B. et al., J. Immunol., 106, 29(1971)] was injected at a dosage of 0.25 ml/guinea pig into the hearts of groups of Hartley-strain male guinea pig (a group consisting of four), each weighing 250-300 g, to make them passively sensitive. […] The rate of breathing and the ratio of expiration time to inspiration time were calculated from the velocity of breathing. As an antigen to induce the reaction 200 μg/kg of benzylpenicilloyl bovine serum albumin [(BPO)23 -BSA] obtained by the method of Levine et al. [Levine et al.; J. Clin. Invest., 47, 556 (1968)] was injected through a cannula into the jugular vein.

[2] = system: homo PCA reaction; test: Inhibitory effect on homo PCA reaction in rats; format: in vivo
[3] = system: Peritoneal cavity cells; test: Inhibitory effect on histamine release from sensitized peritoneal cavity cells; format: cell-based, rat (Wistar-strain); design: Released histamine, fluorescence intensity / Residual histamine, fluorescence intensity / Total histamine, fluorescence intensity: unit not given here; details: for Histamine release rate / Net release rate / inhibition at 10 µM / Released histamine, fluorescence intensity / Residual histamine, fluorescence intensity / Total histamine, fluorescence intensity: 0.01 mM; for Net release rate: release not caused by antigen-antibody reaction deducted
Protocol: The inhibitory effect on histamine release of the compounds according to the present invention was investigated as follows. […] These cells were suspended in a phosphoric acid buffer solution (containing 0.1% of gelatin) and each 0.5 ml portion of this suspension was taken in a polyethylene tube. 1 ml each of solutions of various concentrations of test compound and 0.5 ml of 200 μg/ml of ovalbumin solution were added therein. They were incubated for 20 minutes at 37° C. to measure the histamine release rate. The amount of histamine was measured by a modified Shore method using fluorescence.

[4] = Acute toxicity in mice (LD50, Litchfield-Wilcoxon); details: mouse, in vivo, ICR male mice
Protocol: Acute toxicity tests were carried out by intraperitoneal or peroral administration of the compound according to the present invention to groups of 10 ICR-strain male mice (weighing 20 g on the average), and each LD50 value was determined by Litchfield-Wilcoxon Method.

[5] = system: SRS-A; test: Anti-SRS-A effect on guinea pig's ileum (Magnus method)
Protocol: The anti-SRS-A effect of the compounds according to the present invention on guinea pig's ileum was measured by Magnus method. […] One minute thereafter, the ileum contraction inhibiting rate (%) was measured with use of 1 ml of 80% ethanol solution of SRS-A (150 mg/ml).

In the case of `Cc1ccc(C(=O)C(C)CN2CCCCC2)cc1` (centres unmarked) [2,4'-dimethyl-3-piperidinopropiophenone, reference compound], the “inhibition on the variation from the normal values exhibited in the control group (in words)” value [1] is reported as “less inhibitory effect than the compounds according to the present invention”, the Expiration/inspiration ([1]; 1 min, 1 h before induction) is reported as 90.2 ± 4.02% and the Rate of breathing ([1]; 1 min, 1 h before induction) is reported as 120.6 ± 4.98%. For the same compound, the Volume of breathing ([1]; 1 min, 1 h before induction) was 123.4 ± 6.52%, the Expiration/inspiration ([1]; 3 min, 1 h before induction) was 93.9 ± 5.09% and the Rate of breathing ([1]; 3 min, 1 h before induction) was 98.5 ± 6.55%. The Volume of breathing ([1]; 3 min, 1 h before induction) was 92.6 ± 8.29%, the Expiration/inspiration ([1]; 6 min, 1 h before induction) was 94.3 ± 5.34% and the Rate of breathing ([1]; 6 min, 1 h before induction) was 89.5 ± 3.36%. The Volume of breathing ([1]; 6 min, 1 h before induction) was 96.7 ± 3.97%, the Expiration/inspiration ([1]; 18 min, 1 h before induction) was 96.6 ± 2.39% and the Rate of breathing ([1]; 18 min, 1 h before induction) was 91.3 ± 1.57%. It also gave a Volume of breathing ([1]; 18 min, 1 h before induction) of 90.6 ± 1.52%, an Expiration/inspiration ([1]; 30 min, 1 h before induction) of 94.8 ± 4.76% and a Rate of breathing ([1]; 30 min, 1 h before induction) of 93.3 ± 2.80%. For the same compound, the Volume of breathing ([1]; 30 min, 1 h before induction) was 91.4 ± 6.20%, the Expiration/inspiration ([1]; 60 min, 1 h before induction) was 93.9 ± 3.98% and the Rate of breathing ([1]; 60 min, 1 h before induction) was 86.9 ± 6.14%. The Volume of breathing ([1]; 60 min, 1 h before induction) was 90.9 ± 4.47%, the Expiration/inspiration ([1]; 90 min, 1 h before induction) was 104.3 ± 6.02% and the Rate of breathing ([1]; 90 min, 1 h before induction) was 84.6 ± 6.03%. The Volume of breathing ([1]; 90 min, 1 h before induction) was 91.0 ± 3.34%, the Expiration/inspiration ([1]; 130 min, 1 h before induction) was 107.0 ± 3.44% and the Rate of breathing ([1]; 130 min, 1 h before induction) was 87.3 ± 4.44%. The Volume of breathing ([1]; 130 min, 1 h before induction) was 94.9 ± 4.71%, the Expiration/inspiration ([1]; 180 min, 1 h before induction) was 109.3 ± 6.26% and the Rate of breathing ([1]; 180 min, 1 h before induction) was 87.5 ± 6.43%. For the same compound, the Volume of breathing ([1]; 180 min, 1 h before induction) was 93.8 ± 6.49%, the Expiration/inspiration ([1]; before test) was 100.0 ± 0.00% and the Rate of breathing ([1]; before test) was 100.0 ± 0.00%. The Volume of breathing ([1]; before test) was 100.0 ± 0.00%, the “inhibition of homo PCA reaction” value ([2]; 200 mg/Kg peroral) was “about 40%” and the Histamine release rate [3] was 50.8%. It also gave a Net release rate [3] of 36.9% and an inhibition at 10 µM ([3]; Rattus norvegicus) of 0%.

`CC(CN1CCCCC1)C(=O)c1ccc2ccccc2c1` (stereo not drawn) [Example 2, 2-methyl-3-piperidino-β-propionaphthone hydrochloride] gave an Expiration/inspiration ([1]; 1 min, 1 h before induction) of 78.4 ± 9.00%, a Rate of breathing ([1]; 1 min, 1 h before induction) of 120.8 ± 3.19% and a Volume of breathing ([1]; 1 min, 1 h before induction) of 108.2 ± 1.78%. For the same compound, the Expiration/inspiration ([1]; 3 min, 1 h before induction) was 108.7 ± 11.36%, the Rate of breathing ([1]; 3 min, 1 h before induction) was 90.3 ± 3.36% and the Volume of breathing ([1]; 3 min, 1 h before induction) was 86.7 ± 4.14%. For the same compound, the Expiration/inspiration ([1]; 6 min, 1 h before induction) was 99.8 ± 4.30%, the Rate of breathing ([1]; 6 min, 1 h before induction) was 92.2 ± 5.69% and the Volume of breathing ([1]; 6 min, 1 h before induction) was 90.3 ± 8.26%. It also gave an Expiration/inspiration ([1]; 18 min, 1 h before induction) of 106.5 ± 5.25%, a Rate of breathing ([1]; 18 min, 1 h before induction) of 91.6 ± 5.71% and a Volume of breathing ([1]; 18 min, 1 h before induction) of 86.0 ± 8.49%. It also gave an Expiration/inspiration ([1]; 30 min, 1 h before induction) of 100.3 ± 3.41%, a Rate of breathing ([1]; 30 min, 1 h before induction) of 96.4 ± 4.09% and a Volume of breathing ([1]; 30 min, 1 h before induction) of 93.7 ± 3.75%. For the same compound, the Expiration/inspiration ([1]; 60 min, 1 h before induction) was 97.0 ± 3.47%, the Rate of breathing ([1]; 60 min, 1 h before induction) was 96.2 ± 3.62% and the Volume of breathing ([1]; 60 min, 1 h before induction) was 96.6 ± 4.92%. It also gave an Expiration/inspiration ([1]; 90 min, 1 h before induction) of 96.5 ± 3.18%, a Rate of breathing ([1]; 90 min, 1 h before induction) of 94.0 ± 5.23% and a Volume of breathing ([1]; 90 min, 1 h before induction) of 97.6 ± 7.12%. For the same compound, the Expiration/inspiration ([1]; 130 min, 1 h before induction) was 106.4 ± 4.19%, the Rate of breathing ([1]; 130 min, 1 h before induction) was 94.3 ± 6.97% and the Volume of breathing ([1]; 130 min, 1 h before induction) was 92.1 ± 9.25%. For the same compound, the Expiration/inspiration ([1]; 180 min, 1 h before induction) was 108.7 ± 6.81%, the Rate of breathing ([1]; 180 min, 1 h before induction) was 98.2 ± 5.42% and the Volume of breathing ([1]; 180 min, 1 h before induction) was 97.8 ± 7.28%. For the same compound, the Expiration/inspiration ([1]; before test) was 100.0 ± 0.00%, the Rate of breathing ([1]; before test) was 100.0 ± 0.00% and the Volume of breathing ([1]; before test) was 100.0 ± 0.00%. The LD50 ([4]; ip, intraperitoneal) was 120 mg/kg, the LD50 ([4]; po, peroral) was 370 mg/kg and the “inhibitory effect on homo PCA reaction, dose dependence (in words)” value [2] was “their effects depended on the dose”. For the same compound, the “inhibition of homo PCA reaction” value ([2]; 5 mg/Kg intravenous) was 62.1%, the “ileum contraction inhibiting rate” value ([5]; 10^-4 g/ml) was 76.0 ± 7.23% and the “ileum contraction inhibiting rate” value ([5]; 10^-5 g/ml) was 53.7 ± 8.68%. For the same compound, the “ileum contraction inhibiting rate” value ([5]; 10^-6 g/ml) was 10.0 ± 8.08%, the Histamine release rate [3] was 38.6% and the “Released histamine, fluorescence intensity” value [3] was 184. The “Residual histamine, fluorescence intensity” value [3] was 292, the “Total histamine, fluorescence intensity” value [3] was 476 and the Net release rate [3] was 24.7%. The inhibition at 10 µM ([3]; Rattus norvegicus) was 24.5% and the inhibition at 100 µM ([3]; Rattus norvegicus, 0.1 mM, read-out: Inhibitory effect on histamine release) was 60%.

`Cc1ccc(C(=O)C(C)CN2CCCCC2)cc1C.Cl` (centres unmarked) [Example 5, 2,3',4'-trimethyl-3-piperidinopropiophenone hydrochloride] showed an Expiration/inspiration ([1]; 1 min, 1 h before induction) of 77.6 ± 3.68%, a Rate of breathing ([1]; 1 min, 1 h before induction) of 122.0 ± 16.99% and a Volume of breathing ([1]; 1 min, 1 h before induction) of 100.5 ± 5.01%. For the same compound, the Expiration/inspiration ([1]; 3 min, 1 h before induction) was 92.3 ± 2.19%, the Rate of breathing ([1]; 3 min, 1 h before induction) was 93.7 ± 7.20% and the Volume of breathing ([1]; 3 min, 1 h before induction) was 86.9 ± 5.99%. The Expiration/inspiration ([1]; 6 min, 1 h before induction) was 98.7 ± 3.93%, the Rate of breathing ([1]; 6 min, 1 h before induction) was 93.7 ± 5.80% and the Volume of breathing ([1]; 6 min, 1 h before induction) was 86.4 ± 6.96%. It also gave an Expiration/inspiration ([1]; 18 min, 1 h before induction) of 97.7 ± 2.62%, a Rate of breathing ([1]; 18 min, 1 h before induction) of 99.9 ± 4.00% and a Volume of breathing ([1]; 18 min, 1 h before induction) of 86.3 ± 3.71%. It also gave an Expiration/inspiration ([1]; 30 min, 1 h before induction) of 103.2 ± 1.10%, a Rate of breathing ([1]; 30 min, 1 h before induction) of 92.5 ± 1.76% and a Volume of breathing ([1]; 30 min, 1 h before induction) of 86.6 ± 2.44%. For the same compound, the Expiration/inspiration ([1]; 60 min, 1 h before induction) was 94.3 ± 3.87%, the Rate of breathing ([1]; 60 min, 1 h before induction) was 97.0 ± 1.81% and the Volume of breathing ([1]; 60 min, 1 h before induction) was 93.5 ± 6.17%. For the same compound, the Expiration/inspiration ([1]; 90 min, 1 h before induction) was 96.7 ± 4.58%, the Rate of breathing ([1]; 90 min, 1 h before induction) was 90.7 ± 6.14% and the Volume of breathing ([1]; 90 min, 1 h before induction) was 93.5 ± 3.78%. It also gave an Expiration/inspiration ([1]; 130 min, 1 h before induction) of 106.2 ± 5.28%, a Rate of breathing ([1]; 130 min, 1 h before induction) of 92.9 ± 5.33% and a Volume of breathing ([1]; 130 min, 1 h before induction) of 87.4 ± 3.03%. For the same compound, the Expiration/inspiration ([1]; 180 min, 1 h before induction) was 100.1 ± 2.03%, the Rate of breathing ([1]; 180 min, 1 h before induction) was 97.5 ± 1.82% and the Volume of breathing ([1]; 180 min, 1 h before induction) was 95.1 ± 3.33%. The Expiration/inspiration ([1]; before test) was 100.0 ± 0.00%, the Rate of breathing ([1]; before test) was 100.0 ± 0.00% and the Volume of breathing ([1]; before test) was 100.0 ± 0.00%. For the same compound, the LD50 ([4]; ip, intraperitoneal) was 117 mg/kg, the LD50 ([4]; po, peroral) was 325 mg/kg and the “inhibitory effect on homo PCA reaction, dose dependence (in words)” value [2] was “their effects depended on the dose”. The “inhibition of homo PCA reaction” value ([2]; 200 mg/Kg peroral) was “about 70%”, the “ileum contraction inhibiting rate” value ([5]; 10^-4 g/ml) was 100.0 ± 0% and the “ileum contraction inhibiting rate” value ([5]; 10^-5 g/ml) was 67.7 ± 8.11%. The “ileum contraction inhibiting rate” value ([5]; 10^-6 g/ml) was 12.3 ± 8.25%, the Histamine release rate [3] was 42.9% and the “Released histamine, fluorescence intensity” value [3] was 210. The “Residual histamine, fluorescence intensity” value [3] was 280, the “Total histamine, fluorescence intensity” value [3] was 490 and the Net release rate [3] was 29.0%. The inhibition at 10 µM ([3]; Rattus norvegicus) was 11.3%.
